# Source: US20070117743A1, “New antitumoral compounds” (priority 2003, published 2007)
# Where a SMILES comes first, the peptide text is derived from it. Bridges are numbered along the chain shown (N, C = ends). [ ]: non-standard residue; d: D form. The star is where a group is joined. Bip = N[C@@H](Cc1ccc(-c2ccccc2)cc1)C(=O)O; d(aIle) = CC[C@H](C)[C@@H](N)C(=O)O; d(aThr) = C[C@@H](O)[C@@H](N)C(=O)O; Hexanoyl(5-Me) = CC(C)CCCC(=O)*; Orn = NCCC[C@H](N)C(=O)O; Dhb = C/C=C(\N)C(=O)O
# How the values were obtained:
# Type in all cases: cell-based, human
# [1] = test system: PANC-1; test: SRB colorimetric assay of cell growth and viability, PANC-1; settings: PANC-1, 48 hours exposure; for CC50: read-out: LC50 PANC-1
# [2] = test system: SK-BR-3; test: SRB colorimetric assay of cell growth and viability, SK-BR-3; settings: SK-BR-3; 48 hours exposure
# Excerpt: The finality of this assay is to interrupt the growth of a “in vitro” tumor cell culture by means a continued exhibition of the cells to the sample to be testing.
# This form of the assay employs 96 well cell culture microplates of 9 mm diameter (Faircloth, 1988; Mosmann, 1983). Most of the cell lines are obtained from American Type Culture Collection (ATCC) derived from different human cancer types.
# Cells are maintained in RPMI 1640 10% FBS, supplemented with 0.1 g/l penicillin and 0.1 g/l streptomycin sulfate and then incubated at 37° C., 5% CO2 and 98% humidity. For the experiments, cells were harvested from subconfluent cultures using trypsin and resuspended in fresh medium before plating.
# Cells are seeded in 96 well microtiter plates, at 5×10^3 cells per well in aliquots of 195 μL medium, and they are allowed to attach to the plate surface by growing in drug free medium for 18 hours. Afterward, samples are added in aliquots of 5 μL in a ranging from 10 to 10^−8 μg/mL, dissolved in DMSO:EtOH:PBS (0.5:0.5:99). After 48 hours exposure, the antitumor effect are measured by the SRB methodology: cells are fixed by adding 50 μL of cold 50% (wt/vol) trichloroacetic acid (TCA) and incubating for 60 minutes at 4° C. Plates are washed with deionized water and dried. One hundred μL of SRB solution (0.4% wt/vol in 1% acetic acid) is added to each microtiter well and incubated for 10 minutes at room temperature. Unbound SRB is removed by washing with 1% acetic acid. Plates are air dried and bound stain is solubilized with Tris buffer. Optical densities are read on a automated spectrophotometric plate reader at a single wavelength of 490 nm.
# The values for mean+/− SD of data from triplicate wells are calculated. Some parameters for cellular responses can be calculated: GI=growth inhibition, TGI=total growth inhibition (cytostatic effect) and LC=cell killing (cytotoxic effect).
# [3] = test system: DU-145; test: SRB colorimetric assay of cell growth and viability, DU-145; settings: DU-145; 48 hours exposure
# [4] = test system: LoVo-Dox; test: SRB colorimetric assay of cell growth and viability, LoVo-Dox; settings: LOVO-DOX, 48 hours exposure; for CC50: read-out: LC50 LOVO-DOX
# How it was run: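 Sulforhodamine B assay run after 48 h of continuous drug contact; cells seeded 5×10^3/well in RPMI 1640 10% FBS, attached 18 h. Triplicate OD490 values give cytostatic (TGI), cytotoxic (LC) and GI parameters.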
# [5] = test system: IGROV-1; test: SRB colorimetric assay of cell growth and viability, IGROV-1; settings: IGROV; 48 hours exposure
# [6] = test system: HeLa-APL; test: SRB colorimetric assay of cell growth and viability, HeLa-APL; settings: HELA-APL, 48 hours exposure; for CC50: read-out: LC50 HELA-APL
# [7] = test system: HT-29; test: SRB colorimetric assay of cell growth and viability, HT-29; settings: HT-29, 48 hours exposure; for GI50: read-out: GI50 HT-29; for CC50: read-out: LC50 HT-29
# [8] = test system: A-549; test: SRB colorimetric assay of cell growth and viability, A-549; settings: A-549, 48 hours exposure; for GI50: read-out: GI50 A-549; for CC50: read-out: LC50 A-549
# [9] = test system: HeLa; test: SRB colorimetric assay of cell growth and viability, HeLa; settings: HELA, 48 hours exposure; for CC50: read-out: LC50 HELA
# [10] = test system: LoVo; test: SRB colorimetric assay of cell growth and viability, LoVo; settings: LOVO, 48 hours exposure; for CC50: read-out: LC50 LOVO
# [11] = test system: IGROV-ET; test: SRB colorimetric assay of cell growth and viability, IGROV-ET; settings: IGROV-ET, 48 hours exposure; for CC50: read-out: LC50 IGROV-ET
# [12] = test system: K-562; test: SRB colorimetric assay of cell growth and viability, K-562; settings: K-562, 48 hours exposure; for CC50: read-out: LC50 K-562
# [13] = test system: SK-MEL-28; test: SRB colorimetric assay of cell growth and viability, SK-MEL-28; settings: MEL-28, 48 hours exposure; for CC50: read-out: LC50 MEL-28
Structure (SMILES),GI50 [1] [nM],TGI PANC-1 [1] [Molar],CC50 [1] [nM],GI50 [2] [nM],LC50 [2] [nM],TGI SK-BR-3 [2] [Molar],GI50 [3] [nM],LC50 (concentration causing 50% net cell kill) [3] [nM],TGI DU-145 [3] [Molar],GI50 [4] [nM],TGI LOVO-DOX [4] [Molar],CC50 [4] [nM],GI50 [5] [nM],LC50 (concentration causing 50% net cell killing) [5] [nM],TGI IGROV [5] [Molar],GI50 [6] [nM],TGI HELA-APL [6] [Molar],CC50 [6] [nM],TGI HT-29 [7] [Molar],GI50 [7] [nM],further results
"C/C=C1\NC(=O)[C@H](Cc2ccc(F)c(F)c2)NC(=O)[C@@H](C(C)C)NC(=O)[C@@H]([C@@H](C)CC)NC(=O)[C@H](NC(=O)[C@H](NC(=O)[C@H](CCCN)NC(=O)[C@H]2CCCN2C(=O)[C@H](NC(=O)[C@@H](NC(=O)[C@@H](NC(=O)[C@H](NC(=O)CCCC(C)C)C(C)C)[C@@H](C)O)C(C)C)C(C)C)[C@@H](C)CC)[C@@H](C)OC(=O)[C@H](C(C)C)NC1=O [Compound 84, [Phe(3,4-F2)^3]-KF]",725,1.17E−06,1840,27.3,136,5.34E−08,111,463,2.54E−07,32.3,6.88E−08,176,47.2,155,9.40E−08,117,2.49E−07,467,9.77E−08,62.7,CC50 [7]: 152 nM; TGI A-549 [8]: 3.96E−07 Molar; GI50 [8]: 224 nM; CC50 [8]: 848 nM; GI50 [9]: 70.6 nM; TGI HELA [9]: 2.17E−07 Molar; CC50 [9]: 451 nM; GI50 [10]: 31.7 nM; TGI LOVO [10]: 7.25E−08 Molar; CC50 [10]: 150 nM; GI50 [11]: 65.1 nM; TGI IGROV-ET [11]: 1.16E−07 Molar; CC50 [11]: 343 nM; GI50 [12]: 560 nM; TGI K-562 [12]: 9.28E−07 Molar; CC50 [12]: 1420 nM; GI50 [13]: 224 nM; TGI MEL-28 [13]: 3.55E−07 Molar; CC50 [13]: 561 nM
"C/C=C1\NC(=O)[C@H](Cc2ccc(-c3ccccc3)cc2)NC(=O)[C@@H](C(C)C)NC(=O)[C@@H]([C@@H](C)CC)NC(=O)[C@H](NC(=O)[C@H](NC(=O)[C@H](CCCN)NC(=O)[C@H]2CCCN2C(=O)[C@H](NC(=O)[C@@H](NC(=O)[C@@H](NC(=O)[C@H](NC(=O)CCCC(C)C)C(C)C)[C@@H](C)O)C(C)C)C(C)C)[C@@H](C)CC)[C@@H](C)OC(=O)[C@H](C(C)C)NC1=O [Compound 86, [Bip^3]-KF] ({Hexanoyl(5-Me)}-[dV]TV[dV][dP][Orn][d(aIle)][d(aThr)][d(aIle)][dV][Bip][Dhb]V; ester 8-C)",984,2.17E−06,4770,28.9,5070,1.79E−07,124,527,2.56E−07,73.3,2.69E−07,≥ 6430,181,≥ 6430,5.23E−07,424,1.65E−06,6070,3.73E−07,129,CC50 [7]: 5070 nM; TGI A-549 [8]: 2.87E−07 Molar; GI50 [8]: 125 nM; CC50 [8]: 810 nM; GI50 [9]: 177 nM; TGI HELA [9]: 8.17E−07 Molar; CC50 [9]: 3900 nM; GI50 [10]: 63.7 nM; TGI LOVO [10]: 2.89E−07 Molar; CC50 [10]: 4680 nM; GI50 [11]: 150 nM; TGI IGROV-ET [11]: 1.00E−06 Molar; CC50 [11]: ≥ 6430 nM; GI50 [12]: 1100 nM; TGI K-562 [12]: 2.32E−06 Molar; CC50 [12]: 4870 nM; GI50 [13]: 183 nM; TGI MEL-28 [13]: 4.11E−07 Molar; CC50 [13]: 2480 nM
"C/C=C1\NC(=O)[C@H](Cc2ccc(Cl)cc2)NC(=O)[C@@H](C(C)C)NC(=O)[C@@H]([C@@H](C)CC)NC(=O)[C@H](NC(=O)[C@H](NC(=O)[C@H](CCCN)NC(=O)[C@H]2CCCN2C(=O)[C@H](NC(=O)[C@@H](NC(=O)[C@@H](NC(=O)[C@H](NC(=O)CCCC(C)C)C(C)C)[C@@H](C)O)C(C)C)C(C)C)[C@@H](C)CC)[C@@H](C)OC(=O)[C@H](C(C)C)NC1=O [Compound 83, [Phe(4-Cl)^3]-KF]",658,1.07E−06,1750,34.2,155,5.29E−08,83,461,2.07E−07,38.2,7.81E−08,1840,37.1,143,7.69E−08,96.5,2.28E−07,470,8.24E−08,36.8,CC50 [7]: 172 nM; TGI A-549 [8]: 3.62E−07 Molar; GI50 [8]: 221 nM; CC50 [8]: 593 nM; GI50 [9]: 51.9 nM; TGI HELA [9]: 2.00E−07 Molar; CC50 [9]: 475 nM; GI50 [10]: 30.3 nM; TGI LOVO [10]: 6.27E−08 Molar; CC50 [10]: 165 nM; GI50 [11]: 65.2 nM; TGI IGROV-ET [11]: 1.21E−07 Molar; CC50 [11]: 587 nM; GI50 [12]: 333 nM; TGI K-562 [12]: 5.08E−07 Molar; CC50 [12]: 1130 nM; GI50 [13]: 206 nM; TGI MEL-28 [13]: 3.40E−07 Molar; CC50 [13]: 561 nM
